Calls of active or inactive are those of the source. The calls are words filed in the database; no cut-off is given here.
What was measured:
[1] = Neurotoxicity in po dosed Rattus norvegicus (rat) assessed as minimal motor impairment by rotorod test; format: toxicity, organism-based; conditions: in vivo
[2] = test system: Mus musculus; assay: Anticonvulsant activity in ip dosed Mus musculus (mouse) assessed as protection against maximal electroshock-induced seizures; format: functional
[3] = test system: Mus musculus; assay: Anticonvulsant activity in ip dosed Mus musculus Swiss Webster (mouse) assessed as protection against maximal electroshock-induced seizure at 0.5 hr; format: functional
[4] = test system: Rattus norvegicus; assay: Anticonvulsant activity in po dosed Rattus norvegicus (rat) assessed as protection against subcutaneous pentylenetetrazole-induced seizure; format: functional
[5] = test system: Rattus norvegicus; assay: Anticonvulsant activity Rattus norvegicus (rat) assessed as reduction of hippocampus kindling at 100 mg/kg, ip; format: functional, organism-based; set-up: dose 100 mg/kg
[6] = test system: Mus musculus; assay: Anticonvulsant activity in ip dosed Mus musculus (mouse) assessed as protection against subcutaneous pentylenetetrazole-induced seizure; format: functional
[7] = test system: Mus musculus; assay: Anticonvulsant activity in ip dosed Mus musculus Swiss Webster (mouse) assessed as protection against subcutaneous pentylenetetrazole-induced seizure at 0.5 hr; format: functional
[8] = test system: Mus musculus; assay: Anticonvulsant activity in po dosed Mus musculus Swiss Webster (mouse) assessed as protection against maximal electroshock-induced seizure at 0.5 hr; format: functional
[9] = test system: Rattus norvegicus; assay: Anticonvulsant activity in po dosed Rattus norvegicus (rat) assessed as protection against maximal electroshock-induced seizure; format: functional
[10] = test system: Mus musculus; assay: Anticonvulsant activity in Mus musculus Swiss Webster (mouse) assessed as protection against subcutaneous pentylenetetrazole-induced seizure up to 300 mg/kg, ip at 0.5 hr; format: functional, organism-based; set-up: dose 300 mg/kg
[11] = test system: Mus musculus; assay: Anticonvulsant activity in Mus musculus (mouse) assessed as protection against maximal electroshock-induced seizure at 300 mg/kg, ip; format: functional, organism-based; set-up: dose 300 mg/kg
[12] = test system: Mus musculus; assay: Anticonvulsant activity in Mus musculus (mouse) assessed as protection against subcutaneous pentylenetetrazole-induced seizure at 300 mg/kg, ip; format: functional, organism-based; set-up: dose 300 mg/kg
[13] = test system: Mus musculus; assay: Anticonvulsant activity in Mus musculus (mouse) assessed as protection against subcutaneous pentylenetetrazole-induced seizure up to 300 mg/kg, ip; format: functional, organism-based; set-up: dose 300 mg/kg
[14] = test system: Mus musculus; assay: Anticonvulsant activity in po dosed Mus musculus (mouse) assessed as protection against maximal electroshock-induced seizure; format: functional
[15] = test system: Rattus norvegicus; assay: Protective index, ratio of TD50 for po dosed Rattus norvegicus (rat) to ED50 for po dosed rat by subcutaneous pentylenetetrazole seizure test; format: functional
[16] = test system: Mus musculus; assay: Anticonvulsant activity in Mus musculus (mouse) assessed as protection against maximal electroshock-induced seizure up to 300 mg/kg, ip; format: functional, organism-based; set-up: dose 300 mg/kg
[17] = test system: Rattus norvegicus; assay: Anticonvulsant activity in Rattus norvegicus (rat) assessed as protection against maximal electroshock-induced seizure at 20 mg/kg, ip at 10 min; format: functional, organism-based; set-up: dose 20 mg/kg
[18] = test system: Rattus norvegicus; assay: Anticonvulsant activity in Rattus norvegicus (rat) assessed as protection against maximal electroshock-induced seizure at 20 mg/kg, ip at 60 min; format: functional, organism-based; set-up: dose 20 mg/kg
[19] = test system: Rattus norvegicus; assay: Neurotoxicity in Rattus norvegicus (rat) assessed as minimal motor impairment at 20 mg/kg, ip at 5 min by rotorod test; format: toxicity, organism-based; set-up: dose 20 mg/kg, route intraperitoneal; conditions: in vivo
[20] = test system: Rattus norvegicus; assay: Neurotoxicity in Rattus norvegicus (rat) assessed as minimal motor impairment at 20 mg/kg, ip at 10 min by rotorod test; format: toxicity, organism-based; set-up: dose 20 mg/kg, route intraperitoneal; conditions: in vivo
[21] = test system: Rattus norvegicus; assay: Neurotoxicity in Rattus norvegicus (rat) assessed as minimal motor impairment at 20 mg/kg, ip at 30 min by rotorod test; format: toxicity, organism-based; set-up: dose 20 mg/kg, route intraperitoneal; conditions: in vivo, 0.5 h
[22] = test system: Rattus norvegicus; assay: Protective index, ratio of TD50 for po dosed Rattus norvegicus (rat) to ED50 for po dosed rat by maximal electroshock seizures test; format: functional
[23] = test system: Rattus norvegicus; assay: Neurotoxicity in Rattus norvegicus (rat) assessed as minimal motor impairment at 20 mg/kg, ip at 15 min by rotorod test; format: toxicity, organism-based; set-up: dose 20 mg/kg, route intraperitoneal; conditions: in vivo, 0.25 h
[24] = test system: Rattus norvegicus; assay: Neurotoxicity in Rattus norvegicus (rat) assessed as minimal motor impairment at 20 mg/kg, ip at 60 min by rotorod test; format: toxicity, organism-based; set-up: dose 20 mg/kg, route intraperitoneal; conditions: in vivo, 1 h
[25] = test system: Rattus norvegicus; assay: Neurotoxicity in Rattus norvegicus (rat) at 300 mg/kg, ip; format: toxicity, organism-based; set-up: dose 300 mg/kg, route intraperitoneal; conditions: in vivo
[26] = test system: Mus musculus; assay: Anticonvulsant activity in Mus musculus (mouse) assessed as protection against maximal electroshock-induced seizure at 100 mg/kg, ip; format: functional, organism-based; set-up: dose 100 mg/kg
[27] = test system: Rattus norvegicus; assay: Anticonvulsant activity in ip dosed Rattus norvegicus (rat) assessed as protection against maximal electroshock-induced seizure; format: functional
[28] = Neurotoxicity in ip dosed Rattus norvegicus (rat) assessed as minimal motor impairment at 0.5 hr by rotorod test; format: toxicity, organism-based; conditions: in vivo
[29] = test system: Rattus norvegicus; assay: Anticonvulsant activity in Rattus norvegicus (rat) assessed as protection against maximal electroshock-induced seizure at 30 mg/kg, po; format: functional, organism-based; set-up: dose 30 mg/kg
[30] = Neurotoxicity in ip dosed Mus musculus (mouse) assessed as minimal motor impairment by rotorod test; format: toxicity, organism-based; conditions: in vivo
[31] = test system: Mus musculus; assay: Anticonvulsant activity in Mus musculus Swiss Webster (mouse) assessed as protection against maximal electroshock-induced seizure at 300 mg/kg, ip at 0.5 hr; format: functional, organism-based; set-up: dose 300 mg/kg
[32] = test system: Rattus norvegicus; assay: Anticonvulsant activity in Rattus norvegicus (rat) assessed as protection against maximal electroshock-induced seizure at 20 mg/kg, ip at 30 min; format: functional, organism-based; set-up: dose 20 mg/kg
[33] = test system: Rattus norvegicus; assay: Anticonvulsant activity in Rattus norvegicus (rat) assessed as protection against maximal electroshock-induced seizure at 20 mg/kg, ip at 15 min; format: functional, organism-based; set-up: dose 20 mg/kg

NC(=O)OCC(COC(N)=O)c1ccccc1 [FELBAMATE]
TD50 [1]: > 500 mg/kg
ED50 [2]: 35.5 mg/kg
ED50 [3]: 35 mg/kg
ED50 [4]: > 250 mg/kg
Activity [5]: inactive
ED50 [6]: 126 mg/kg
ED50 [7]: 548 mg/kg
ED50 [8]: 52 mg/kg
ED50 [9]: 25.3 mg/kg

CNC(=O)OCc1ccccc1 [BENZYL N-METHYLCARBAMATE]
ED50 [3]: 40.5 mg/kg
Activity [10]: inactive

CCCC(CO)NC(=O)OCc1ccccc1 (racemic)
ED50 [3]: 51.8 mg/kg
ED50 [7]: 281 mg/kg
Activity [11]: Active
Activity [12]: Active

NC(=O)OCCc1ccccc1 [PHENYLETHYL CARBAMATE]
ED50 [3]: 17.7 mg/kg
Activity [10]: inactive

O=C(NCCO)OCc1ccccc1
ED50 [3]: 25.2 mg/kg
ED50 [7]: 170 mg/kg
Activity [11]: Active
Activity [13]: inactive

NC(=O)OCC(CO)c1ccccc1 (stereo unspecified)
ED50 [14]: 154 mg/kg

C[C@H](CO)NC(=O)OCc1ccccc1
TD50 [1]: > 500 mg/kg
Ratio TD50/ED50 [15]: 2
ED50 [3]: 60.1 mg/kg
Activity [16]: inactive
ED50 [4]: > 250 mg/kg
Activity [5]: inactive
ED50 [7]: 226 mg/kg
Activity [17]: inactive
Activity [18]: inactive
Activity [19]: Non-toxic
Activity [13]: inactive
Activity [20]: Non-toxic
Activity [21]: Non-toxic
Ratio TD50/ED50 [22]: >21
Activity [23]: Non-toxic
Activity [24]: Non-toxic
Activity [25]: Toxic
ED50 [9]: 23.9 mg/kg

O=C(NCc1ccccc1)OCc1ccccc1 [BENZYL BENZYLCARBAMATE]
ED50 [3]: 170 mg/kg
ED50 [7]: 115 mg/kg
Activity [11]: Active
Activity [13]: inactive

CCCC(C)(COC(N)=O)COC(N)=O [MEPROBAMATE]
ED50 [3]: 127 mg/kg
ED50 [7]: 66 mg/kg
ED50 [8]: 165 mg/kg

O=C(N[C@H](CO)Cc1ccccc1)OCc1ccccc1
ED50 [3]: 33.5 mg/kg
Activity [7]: Active
Activity [11]: Active
Activity [13]: inactive

O=C(N[C@@H](CO)Cc1ccccc1)OCc1ccccc1
ED50 [3]: 14.9 mg/kg
Anticonvulsant activity [7]: Active
Activity [11]: Active
Activity [13]: inactive

CC[C@@H](CO)NC(=O)OCc1ccccc1
ED50 [3]: 123 mg/kg
ED50 [7]: 111 mg/kg
Activity [11]: Active
Activity [13]: inactive

CCC(COC(N)=O)c1ccccc1 (racemic)
TD50 [1]: > 320 mg/kg
ED50 [2]: 72.7 mg/kg
Ratio TD50/ED50 [15]: 8
Activity [26]: Active
ED50 [27]: 16.1 mg/kg
ED50 [3]: 71.7 mg/kg
ED50 [4]: > 40 mg/kg
Activity [5]: inactive
ED50 [6]: 87.6 mg/kg
ED50 [7]: 124 mg/kg
TD50 at 0.5 h [28]: 50.5 mg/kg
Activity [29]: Active
Activity [12]: Active
Ratio TD50/ED50 [22]: >15.3
Activity [25]: Toxic
ED50 [9]: 21 mg/kg
TD50 [30]: 114 mg/kg

CC[C@H](CO)NC(=O)OCc1ccccc1
ED50 [3]: 80.5 mg/kg
ED50 [7]: 144 mg/kg
Activity [11]: Active
Activity [13]: inactive

NC(=O)OCc1ccccc1 [BENZYL CARBAMATE]
ED50 [3]: 30.6 mg/kg
ED50 [7]: 80.2 mg/kg

NC(=O)Oc1ccccc1 [CARBAMIC ACID PHENYL ESTER]
Activity [31]: Active
ED50 [7]: 101 mg/kg

C[C@@H](CO)NC(=O)OCc1ccccc1
TD50 [1]: > 360 mg/kg
Ratio TD50/ED50 [15]: 2.88
Activity [32]: inactive
ED50 [3]: 54.7 mg/kg
Activity [16]: inactive
ED50 [4]: > 125 mg/kg
ED50 [7]: 258 mg/kg
Activity [29]: Active
Activity [19]: Non-toxic
Activity [13]: inactive
Activity [20]: Non-toxic
Activity [21]: Non-toxic
Ratio TD50/ED50 [22]: >5.3
Activity [23]: Non-toxic
Activity [24]: Non-toxic
Activity [33]: inactive
ED50 [9]: 67.6 mg/kg

Source: ChEMBL document CHEMBL3046477, “Carbamate derivatives of felbamate as potential anticonvulsant agents” (Med Chem Res, 2010)
